A value given as a limit tells only on which side of the number the result lay.

The values below come from patent publication EP0579169B1, “Alkylenediamine derivatives” (NIPPON CHEMIPHAR CO., LTD., priority 1992, dated 1994).

Data set [1] concerns rhythmic bladder contraction. Kind of data set: Test for inhibition of urinating contraction of bladder (rhythmic bladder contraction, anesthetized rat, saline infusion into the closed bladder). It counts as in vivo. The note with it: i.v., urethane-anesthetized male Wistar rat, control (physiological saline) 1.6 min. As for the experimental part: (I) Test for Inhibition of Urinating Contraction of Bladder
With respect to inhibition of the urinating contraction of bladder, performance of the compound of the present invention was evaluated by the following method.
A male Wistar rat was anesthetized with urethane (1.5 g/kg, s.c.) and fixed on its back on a board. Into the trachea of the rat, a tracheotomy tube was inserted in order to insure an airway, and then midline incisura was carried out to denude the bladder. Subsequently, a small opening was produced on the top of the bladder and the urine was exhausted, and then a polyethylene cannula (diameter: approx. 1 mm) was inserted into the bladder. The urethra and the ureter were tied up to make the bladder a closed system.
By means of an infusion pump, phsiological saline was poured into the bladder of rat at a rate of 0.05 ml/min. induce the rhythmic bladder contraction. Subsequently, intravesical pressure was measured by a pressure transducer and recorded on a pen-writing recorder. The test compound was dissolved in physiological saline and then administered into the femoral vein through a polyethylene cannula.
Performance for inhibiting the urinary bladder contraction was evaluated by measuring the period (inhibiting period) in which the rhythmic bladder contraction was inhibited. As the medicament, each of the compounds obtained in Examples was used.

Another data set deals with Urinary bladder strips. Kind of data set: Effect on isolated urinary bladder smooth muscle (contraction elicited by acetylcholine or norepinephrine). Also on record: species or system male Japanese white rabbits. The following applies: rabbit urinary bladder strips, Krebs solution 37°C; pretreatment five minutes before, concentration 1x10^-5 to 3x10^-5 (unit not given). On the procedure: (II) Effect on Isolated Urinary Bladder Smooth Muscle
Urinary bladder strips were obtained from male Japanese white rabbits (weight: 2.00-2.80 kg). Each strip was suspended in an organ bath containing Krebs solution. The organ bath was maintained at 37°C and constantly gassed with carbogen. Cumulative concentration-response curves of acetylcholine and norepinephrine were obtained.
The compound to be tested (compound of Example 2 (i.e., 5-benzyl-3-(3-morpholino-1-phenylpropyl)-1,3-oxazolidin-2-one fumarate) was introduced into the Krebs solution five minutes prior to the introduction of acetylcholine or norepinephrine to elicit the contractive action.
Therefore, it has been confirmed that the tested compound depresses the bladder contraction not by acting on the peripheral nerves system but on the central nurves system.

The nature of data set [2]: Toxicity, LD50 by the up-and-down method. It counts as in vivo. The note with it: mouse, in vivo, iv. An excerpt: (§1) With respect to toxicity of the compounds of the invention, each LD50 (mg/kg) measured by the up-and-down method is also set forth in Table 1.
Another data set relates to mouse. Put plainly: Toxicity, LD50 by the up-and-down method. It counts as in vivo. The following applies: i.v.
Excerpt: as §1

On to `O=C(O)/C=C/C(=O)O.O=C1OC(Cc2ccccc2)CN1C(CCN1CCOCC1)c1ccccc1` (single isomer, unassigned) [Example 2, 5-Benzyl-3-(3-morpholino-1-phenylpropyl)-1,3-oxazolidin-2-one fumarate], for which, in data set [1] (dose 8 mg/kg, fumarate), the “Period (inhibiting period in which the rhythmic bladder contraction was inhibited)” value was 5.4 min. Besides, in the data set with Urinary bladder strips, the “action on the contraction caused by acetylcholine” value is “did not give any effective action” and the “action on the contraction caused by norepinepherine” value was “did not give any effective action”. Also, in data set [2], the LD50 came out at 76 mg/kg.

For the molecule `O=C(O)/C=C/C(=O)O.O=C1OC(Cc2ccccc2Br)CN1C(CCN1CCOCC1)c1ccccc1` (single isomer, unassigned) [Example 13, 5-(2-Bromophenyl)methyl-3-(3-morpholino-1-phenylpropyl)-1,3-oxazolidin-2-one fumarate], the “Period (inhibiting period in which the rhythmic bladder contraction was inhibited)” value in data set [1] (dose 5 mg/kg) turned out to be 6.5 min. For the same molecule, in data set [2], the LD50 came to 48 mg/kg.

On to `O=C(O)/C=C/C(=O)O.O=C1OC(CCc2ccccc2Br)CN1C(CCN1CCOCC1)c1ccccc1` (single isomer, unassigned) [Example 25, 5-[2-(2-bromophenyl)ethyl]-3-(3-morpholino-1-phenylpropyl)-1,3-oxazolidin-2-one fumarate], for which the “Period (inhibiting period in which the rhythmic bladder contraction was inhibited)” value in data set [1] (dose 8 mg/kg) worked out at 7.5 min. For the same molecule, the LD50 in data set [2] is 79 mg/kg.

Consider `O=C(O)/C=C/C(=O)O.O=C1OC(CCc2ccccc2Cl)CN1C(CCN1CCOCC1)c1ccccc1` (single isomer, unassigned) [Example 27, 5-[2-(2-Chlorophenyl)ethyl]-3-(3-morpholino-1-phenylpropyl)-1,3-oxazolidin-2-one fumarate], for which the “Period (inhibiting period in which the rhythmic bladder contraction was inhibited)” value in data set [1] (dose 8 mg/kg) amounted to 8.0 min. Moreover, the LD50 in data set [2] turned out to be 75 mg/kg.

In the case of `CS(=O)(=O)O.O=C1OC(Cc2cccc3ccccc23)CN1C(CCN1CCOCC1)c1ccccc1` (single isomer, unassigned) [Example 46, 5-(1-Naphthyl)methyl-3-(3-morpholino-1-phenylpropyl)-1,3-oxazolidin-2-one mesylate], the “Period (inhibiting period in which the rhythmic bladder contraction was inhibited)” value in data set [1] (dose 5 mg/kg) was found to be 6.0 min. In data set [2], this molecule showed an LD50 greater than 20 mg/kg.

As to `O=C(O)/C=C/C(=O)O.O=C1OC(CCc2ccccc2)CN1C(CCN1CCOCC1)c1ccccc1` (single isomer, unassigned) [Example 50, 3-(3-Morpholino-1-phenylpropyl)-5-(2-phenylethyl)-1,3-oxazolidin-2-one fumarate], the “Period (inhibiting period in which the rhythmic bladder contraction was inhibited)” value in data set [1] (dose 5 mg/kg) was found to be 7.5 min. Moreover, the LD50 in data set [2] came to 45 mg/kg.

For the molecule `O=C(O)/C=C/C(=O)O.O=C1OC(Cc2cccs2)CN1C(CCN1CCOCC1)c1ccccc1` (single isomer, unassigned) [Example 55, 3-(3-Morpholino-1-phenylpropyl)-5-(2-thenyl)-1,3-oxazolidin-2-one fumarate], the “Period (inhibiting period in which the rhythmic bladder contraction was inhibited)” value in data set [1] (dose 8 mg/kg) is 4.6 min. The LD50 in data set [2] was determined as 84 mg/kg.

On to `O=C(O)/C=C/C(=O)O.O=C1OC(Cc2cccs2)CN1C(CCN1CCOCC1)c1ccccc1` (single isomer, unassigned) [Example 56, 3-(3-Morpholino-1-phenylpropyl)-5-(2-thenyl)-1,3-oxazolidin-2-one fumarate], for which the “Period (inhibiting period in which the rhythmic bladder contraction was inhibited)” value in data set [1] (dose 11 mg/kg) was determined as 4.7 min. In addition, in the data set with mouse (fumarate), the LD50/mouse stood at 111 mg/kg.

As for `O=C1OC(Cc2ccccc2)CN1C(CCN1CCOCC1)c1cccs1` (single isomer, unassigned) [Example 61, 5-Benzyl-3-[3-morpholino-1-(2-thienyl)propyl]-1,3-oxazolidin-2-one], the “Period (inhibiting period in which the rhythmic bladder contraction was inhibited)” value in data set [1] (dose 6 mg/kg) turned out to be 6.5 min. Moreover, in data set [2], the LD50 came out at 59 mg/kg.

In the case of `O=C1OC(Cc2ccccc2)CN1C(CCN1CCOCC1)c1cccs1` (single isomer, unassigned) [Example 62, 5-Benzyl-3-[3-morpholino-1-(2-thienyl)propyl]-1,3-oxazolidin-2-one], the “Period (inhibiting period in which the rhythmic bladder contraction was inhibited)” value in data set [1] (dose 6 mg/kg) worked out at 7.2 min. For the same molecule, the LD50/mouse with mouse is on record as 63 mg/kg.

Turning to `CC(C)CC1COC(=O)N1C(CCN1CCOCC1)c1ccccc1.O=C(O)/C=C/C(=O)O` (single isomer, unassigned) [Example 67, 4-Isobutyl-3-(3-morpholino-1-phenylpropyl)-1,3-oxazolidin-2-one fumarate], the “Period (inhibiting period in which the rhythmic bladder contraction was inhibited)” value in data set [1] (dose 14 mg/kg) is 3.5 min. Further, in data set [2], the LD50 amounted to 137 mg/kg.

Consider `O=C(O)/C=C/C(=O)O.O=C1OCC(Cc2ccccc2)N1C(CCN1CCOCC1)c1ccccc1` (single isomer, unassigned) [Example 69, 4-Benzyl-3-(3-morpholino-1-phenylpropyl)-1,3-oxazolidin-2-one fumarate], for which the “Period (inhibiting period in which the rhythmic bladder contraction was inhibited)” value in data set [1] (dose 8 mg/kg) is 6.6 min. Further, the LD50 in data set [2] was 76 mg/kg.

As for `O=C(O)/C=C/C(=O)O.O=C1COC(Cc2ccccc2Br)CN1C(CCN1CCOCC1)c1ccccc1` (single isomer, unassigned) [Example 70, 2-(2-Bromobenzyl)-4-(3-morpholino-1-phenylpropyl)-5-morpholinone fumarate], the “Period (inhibiting period in which the rhythmic bladder contraction was inhibited)” value in data set [1] (dose 6 mg/kg) worked out at 1.5 min. Moreover, the LD50 in data set [2] was greater than 60 mg/kg.

With `O=C(O)/C=C/C(=O)O.O=C1OC(Cc2ccccc2)CN1C(CCN1CCOCC1)c1ccccc1` (single isomer, unassigned; (+)) [Example 4, (+)-5-Benzyl-3-(3-morpholino-1-phenylpropyl)-1,3-oxazolidin-2-one fumarate], the “Period (inhibiting period in which the rhythmic bladder contraction was inhibited)” value in data set [1] (dose 8 mg/kg, fumarate) came to 3.8 min. The same molecule gave an LD50/mouse in the data set on mouse (fumarate) of 77 mg/kg.

Regarding `O=C(O)/C=C/C(=O)O.O=C1OC(Cc2ccccc2)CN1C(CCN1CCOCC1)c1ccccc1` (single isomer, unassigned; (-)) [Example 3, (-)-5-Benzyl-3-(3-morpholino-1-phenylpropyl)-1,3-oxazolidin-2-one fumarate], in data set [1] (dose 8 mg/kg, fumarate), the “Period (inhibiting period in which the rhythmic bladder contraction was inhibited)” value turned out to be 6.0 min. For the same molecule, in the data set with mouse (fumarate), the LD50/mouse turned out to be 49 mg/kg.

In general, LD50 refers to the dose expected to kill half of the subjects tested. Higher therefore signals a less toxic substance.
